Data reported in US9938299B2, “Glycosidase inhibitors and uses thereof” (MERCK SHARP & DOHME CORP., priority 2012, dated 2018).
Read-outs that look alike come from different tables or passages of the source.

Experiments:
[1] = Determination of apparent permeability (Papp), bi-directional transport in LLC-PK1 cells; format: in vitro ADME; settings: pig, t=3 h, average of A to B and B to A
Method: (§1) Bi-directional transport was evaluated in LLC-PK1 cells in order to determine apparent permeability (Papp). LLC-PK1 cells can form a tight monolayer and therefore can be used to assess vectorial transport of compounds from basolateral to apical (B→A) and from apical to basolateral (A→B).
(§2) To determine Papp LLC-PK1 cells were cultured in 96-well transwell culture plates (Millipore). Solutions containing the test compounds (1 μM) were prepared in Hank's Balanced Salt Solution with 10 mM HEPES. Substrate solution (150 μL) was added to either the apical (A) or the basolateral (B) compartment of the culture plate, and buffer (150 μL) was added to the compartment opposite to that containing the compound. At t=3 h, 50 μL samples were removed from both sides of monolayers dosed with test compound and placed in 96 well plates, scintillant (200 μL) or internal standard (100 μL labetolol 1 μM) was added to the samples and concentration was determined by liquid scintillation counting in a MicroBeta Wallac Trilux scintillation counter (Perkin Elmer Life Sciences, Boston, Mass.) or by LCMS/MS (Applied Biosystems SCIEX API 5000 triple quadruple mass spectrometer). [^3H]Verapamil (1 μM) was used as the positive control. The experiment was performed in triplicate.

[2] = biological target: T1, human O-GlcNAcase (Homo sapiens, UniProt O60502); experiment: Determination of KI values for inhibition of O-GlcNAcase activity (fluorogenic 4-methylumbelliferyl GlcNAc substrate); format: biochemical
T1 sequence (O60502 1-916): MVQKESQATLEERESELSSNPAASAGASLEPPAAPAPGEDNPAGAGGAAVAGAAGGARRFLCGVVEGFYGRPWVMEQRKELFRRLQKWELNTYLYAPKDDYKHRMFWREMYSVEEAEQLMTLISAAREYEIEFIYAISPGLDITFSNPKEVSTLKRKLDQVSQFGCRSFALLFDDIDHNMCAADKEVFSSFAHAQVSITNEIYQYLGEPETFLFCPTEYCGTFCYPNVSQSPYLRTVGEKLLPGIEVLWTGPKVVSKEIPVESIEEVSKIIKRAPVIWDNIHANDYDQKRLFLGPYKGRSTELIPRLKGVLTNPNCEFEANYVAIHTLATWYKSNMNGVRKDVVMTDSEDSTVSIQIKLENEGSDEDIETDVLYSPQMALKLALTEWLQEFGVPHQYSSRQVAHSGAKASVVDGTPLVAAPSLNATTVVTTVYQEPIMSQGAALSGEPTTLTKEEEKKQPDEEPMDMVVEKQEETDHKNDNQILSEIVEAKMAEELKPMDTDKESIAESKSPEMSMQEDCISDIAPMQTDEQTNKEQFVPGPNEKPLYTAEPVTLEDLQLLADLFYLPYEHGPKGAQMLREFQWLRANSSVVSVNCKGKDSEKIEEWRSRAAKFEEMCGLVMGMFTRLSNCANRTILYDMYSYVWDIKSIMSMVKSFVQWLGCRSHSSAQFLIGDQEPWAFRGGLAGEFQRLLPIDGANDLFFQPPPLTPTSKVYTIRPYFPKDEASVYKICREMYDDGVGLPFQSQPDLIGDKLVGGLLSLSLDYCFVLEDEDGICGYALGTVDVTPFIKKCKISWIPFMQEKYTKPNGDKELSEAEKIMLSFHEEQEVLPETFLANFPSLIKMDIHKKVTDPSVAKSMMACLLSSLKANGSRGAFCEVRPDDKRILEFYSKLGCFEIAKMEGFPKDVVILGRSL
Method: Assay for Determination of […] for Inhibition of O-GlcNAcase Activity
Experimental procedure for kinetic analyses: Enzymatic reactions were carried out in a reaction containing 50 mM NaH2PO4, 100 mM NaCl and 0.1% BSA (pH 7.0) using 2 mM 4-Methylumbelliferyl N-acetyl-β-D-glucosaminide dihydrate (Sigma M2133) dissolved in ddH2O, as a substrate. The amount of purified human O-GlcNAcase enzyme used in the reaction was 0.7 nM. Test compound of varying concentrations was added to the enzyme prior to initiation of the reaction. The reaction was performed at room temperature in a 96-well plate and was initiated with the addition of substrate. […] The slope of product production was determined for each concentration of compound tested and plotted, using standard curve fitting algorithms for sigmoidal dose response curves. The values for a four parameter logistic curve fit of the data were determined.

[3] = biological target: T2, hPgp (Homo sapiens, UniProt P08183); experiment: hPgp efflux ratio (Papp B→A/A→B ratio); format: in vitro ADME; settings: LLC-PK1
T2 construct: expressed in transfected cells; host or cells: LLC-PK1 cells
Method: as §1, §2

[4] = purified human O-GlcNAcase 0.7 nM, 2 mM substrate, pH 7.0, room temperature, Cheng-Prusoff, read-out: Ki

T2 sequence (P08183 whole entry): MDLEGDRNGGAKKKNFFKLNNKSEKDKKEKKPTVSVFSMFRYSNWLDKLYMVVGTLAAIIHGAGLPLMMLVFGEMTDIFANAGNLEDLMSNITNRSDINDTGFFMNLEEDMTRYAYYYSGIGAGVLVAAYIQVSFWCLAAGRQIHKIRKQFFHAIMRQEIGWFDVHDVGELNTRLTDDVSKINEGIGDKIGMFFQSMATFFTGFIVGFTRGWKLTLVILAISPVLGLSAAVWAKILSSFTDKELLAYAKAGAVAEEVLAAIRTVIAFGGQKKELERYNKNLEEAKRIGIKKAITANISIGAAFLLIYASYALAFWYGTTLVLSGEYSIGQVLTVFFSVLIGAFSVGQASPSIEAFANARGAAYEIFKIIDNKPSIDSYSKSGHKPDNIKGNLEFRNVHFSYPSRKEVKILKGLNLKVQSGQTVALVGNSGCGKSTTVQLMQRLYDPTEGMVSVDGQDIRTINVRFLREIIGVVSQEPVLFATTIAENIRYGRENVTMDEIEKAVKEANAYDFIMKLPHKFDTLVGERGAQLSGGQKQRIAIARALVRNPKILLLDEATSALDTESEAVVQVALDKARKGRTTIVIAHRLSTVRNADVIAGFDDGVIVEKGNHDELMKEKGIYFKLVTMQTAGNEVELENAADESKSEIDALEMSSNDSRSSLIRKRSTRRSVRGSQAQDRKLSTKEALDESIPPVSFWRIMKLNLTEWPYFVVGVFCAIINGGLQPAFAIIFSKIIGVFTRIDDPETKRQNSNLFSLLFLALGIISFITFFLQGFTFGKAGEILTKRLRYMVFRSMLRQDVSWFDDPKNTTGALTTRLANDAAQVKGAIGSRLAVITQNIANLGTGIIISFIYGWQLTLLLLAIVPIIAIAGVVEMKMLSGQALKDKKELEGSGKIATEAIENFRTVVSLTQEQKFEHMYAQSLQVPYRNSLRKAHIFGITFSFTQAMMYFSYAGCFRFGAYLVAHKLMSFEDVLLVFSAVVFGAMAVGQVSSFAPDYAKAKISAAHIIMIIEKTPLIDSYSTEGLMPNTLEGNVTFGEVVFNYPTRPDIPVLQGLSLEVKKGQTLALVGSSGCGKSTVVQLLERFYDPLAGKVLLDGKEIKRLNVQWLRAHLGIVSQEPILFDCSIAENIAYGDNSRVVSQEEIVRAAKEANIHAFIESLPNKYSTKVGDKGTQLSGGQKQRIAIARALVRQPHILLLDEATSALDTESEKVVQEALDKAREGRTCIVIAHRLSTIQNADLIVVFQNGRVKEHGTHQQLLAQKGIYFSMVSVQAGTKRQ

SMILES | Ki [2, 4] [nM] | Ki [2] [nM] | further results
CNC1=N[C@@H]2[C@@H](O)[C@H](O)[C@@H](CCCc3ccc(OC)cc3)O[C@@H]2S1 [Example 34, (3aR,5R,6S,7R,7aR)-5-[3-(4-methoxyphenyl)propyl]-2-(methylamino)-5,6,7,7a-tetrahydro-3aH-pyrano[3,2-d][1,3]thiazole-6,7-diol] | 11.1 |  | Papp at 3 h, 1 μM [1]: 25 ×10⁻⁶ cm/s; efflux ratio at 3 h, 1 μM [3]: 3.4
CCNC1=N[C@@H]2[C@@H](O)[C@H](O)[C@@H](C(=O)N(C)C)O[C@@H]2S1 [Example 51, (3aR,5S,6S,7R,7aR)-2-(ethylamino)-6,7-dihydroxy-N,N-dimethyl-5,6,7,7a-tetrahydro-3aH-pyrano[3,2-d]thiazole-5-carboxamide] |  | 1880 | 
CCNC1=N[C@@H]2[C@@H](O)[C@H](O)[C@@H](C(=O)O)O[C@@H]2S1 [Example 52, (3aR,5S,6S,7R,7aR)-2-(ethylamino)-6,7-dihydroxy-5,6,7,7a-tetrahydro-3aH-pyrano[3,2-d]thiazole-5-carboxylic acid] |  | 27 | 
CCNC1=N[C@@H]2[C@@H](O)[C@H](O)[C@@H](C(=O)OC)O[C@@H]2S1 [Example 53, (3aR,5S,6S,7R,7aR)-N-ethyl-6,7-clihydroxy-5-(methoxycarbonyl)-5,6,7,7a-tetrahydro-3aH-pyrano[3,2-d]thiazol-2-aminium chloride] |  | 480 | 
CCNC1=N[C@@H]2[C@@H](O)[C@H](O)[C@@H](CCl)O[C@@H]2S1 [Example 54, (3aR,5S,6S,7R,7aR)-5-(chloromethyl)-2-(ethylamino)-5,6,7,7a-tetrahydro-3aH-pyrano[3,2-d]thiazole-6,7-diol] |  | 2.3 | 
CCNCC[C@H]1O[C@@H]2SC(NC)=N[C@@H]2[C@@H](O)[C@@H]1O [Example 55, (3aR,5R,6S,7R,7aR)-5-(2-(ethylamino)ethyl)-2-(methylamino)-5,6,7,7a-tetrahydro-3aH-pyrano[3,2-d]thiazole-6,7-diol] | 9.3 |  | 
CN(C)C1=N[C@@H]2[C@@H](O)[C@H](O)[C@@H](C(C)(C)Cl)O[C@@H]2S1 [Example 56, (3aR,5S,6S,7R,7aR)-5-(2-chloropropan-2-yl)-2-(dimethylamino)-5,6,7,7a-tetrahydro-3aH-pyrano[3,2-d]thiazole-6,7-diol] | 207 |  | 
C#C[C@H]1O[C@@H]2SC(NCC)=N[C@@H]2[C@@H](O)[C@@H]1O [Example 57, (3aR,5R,6S,7R,7aR)-2-(ethylamino)-5-ethynyl-5,6,7,7-tetrahydro-3aH-pyrano[3,2-d]thiazole-6,7-diol] | 837 |  | 
CCNC1=N[C@@H]2[C@@H](O)[C@H](O)[C@@H](C#N)O[C@@H]2S1 [Example 58, (3aR,5R,6S,7R,7aR)-2-(ethylamino)-6,7-dihydroxy-5,6,7,7a-tetrahydro-3aH-pyrano[3,2-d]thiazole-5-carbonitrile] | 601 |  | 
CNC1=N[C@@H]2[C@@H](O)[C@H](O)[C@@H](CSc3ccccc3)O[C@@H]2S1 [Example 59, (3aR,5 S,6S,7R,7aR)-2-(methylamino)-5-((phenylthio)methyl)-5,6,7,7a-tetrahydro-3aH-pyrano[3,2-d]thiazole-6,7-diol] | 1.9 |  | 
CNC1=N[C@@H]2[C@@H](O)[C@H](O)[C@@H](CS(=O)(=O)c3ccccc3)O[C@@H]2S1 [Example 60, (3aR,5 S,6S,7R,7aR)-2-(methylamino)-5-((phenylsulfonyl)methyl)-5,6,7,7a-tetrahydro-3 aH-pyrano[3,2-d]thiazole-6,7-diol] | 75 |  | 
CNC1=N[C@@H]2[C@@H](O)[C@H](O)[C@@H](CSCc3ccccc3)O[C@@H]2S1 [Example 61, (3aR,5S,6S,7R,7aR)-5-((benzylthio)methyl)-2-(methylamino)-5,6,7,7a-tetrahydro-3aH-pyrano[3,2-d]thiazole-6,7-diol] | 4.1 |  | 
CNC1=N[C@@H]2[C@@H](O)[C@H](O)[C@@H](CS(=O)(=O)Cc3ccccc3)O[C@@H]2S1 [Example 62, (3aR,5S,6S,7R,7aR)-5-((benzylsulfonyl)methyl)-2-(methylamino)-5,6,7,7a-tetrahydro-3aH-pyrano[3,2-d]thiazole-6,7-diol] | 352 |  | Papp at 3 h, 1 μM [1]: 1.3 ×10⁻⁶ cm/s; efflux ratio at 3 h, 1 μM [3]: 1.1
